From US20230203059A1, “MACROCYCLIC JAK INHIBITOR AND USES THEREOF” (Biopolar Hongye (Guangdong) Pharmaceutical Co. Ltd., priority 2020, published 2023) come the findings set out here.

Structures are written as SMILES.

Holding throughout (format): biochemical
One assay addresses JAK2 (Homo sapiens, UniProt O60674). The assay is described as follows: JAK kinase activity, homogeneous time-resolved fluorescence (JAK2 reaction system). The conditions noted are these: ATP 2 μM, JAK2 protein 0.01 ng/μL. As to the method: (§1) The activity measurement method of JAK kinase was to use homogeneous time-resolved fluorescence technique. The reaction was performed in 384 shallow well plates with a total reaction volume of 10 μL. The mixture of kinase protein, compound, ATP and substrate was carried out in a reaction buffer of 50 mM Hepes (pH7.0), NaN3 0.02%, BSA 0.01%, 0.1 mM Orthocanadate, 5 mM MgCl2, and 1 mM DTT. After reacting for 1 hour, an antibody capable of recognizing substrate phosphorylation, dye XL-615 and detection buffer (Cisbio) containing EDTA were added to the system. The reaction signal of kinase was detected by PE company's porous plate detector. The parameter settings were excitation light at 320 nm, emission light at 615 nm and 665 nm. The activity of JAK is indirectly reflected by the signal ratio of 665 nm and 615 nm. In the reaction, the background well without enzyme and the total enzyme activity well without compound were set.
(§2) The IC50 value of the compound inhibiting protein was obtained by the formula: Y=100/(1+10^((Log IC50−X)*HillSlope)). In JAK1 reaction system, the concentration of ATP was 2 μM, and the concentration of JAK1 protein was 0.2 ng/μL.
In JAK2 reaction system, the concentration of ATP was 2 μM, and the concentration of JAK2 protein was 0.01 ng/μL.

Another assay concerns the target JAK1 (Homo sapiens, UniProt P23458). The assay is described as follows: JAK kinase activity, homogeneous time-resolved fluorescence (JAK1 reaction system). The conditions noted are these: ATP 2 μM, JAK1 protein 0.2 ng/μL; read-out: JAK 1 activity. On the procedure:
as §1, §2

In the next assay the target is TYK2 (Homo sapiens, UniProt P29597). Briefly: JAK kinase activity, homogeneous time-resolved fluorescence (TYK2 reaction system). The conditions noted are these: ATP 2 μM, TYK2 protein 0.2 ng/μL; read-out: TYK 2 activity. On the procedure:
as §1, §2
In TYK2 reaction system, the concentration of ATP was 2 μM, and the concentration of TYK2 protein was 0.2 ng/μL.

The next assay deals with T1, JAK3 (Homo sapiens, UniProt P52333).
T1 sequence (P52333 1-1124): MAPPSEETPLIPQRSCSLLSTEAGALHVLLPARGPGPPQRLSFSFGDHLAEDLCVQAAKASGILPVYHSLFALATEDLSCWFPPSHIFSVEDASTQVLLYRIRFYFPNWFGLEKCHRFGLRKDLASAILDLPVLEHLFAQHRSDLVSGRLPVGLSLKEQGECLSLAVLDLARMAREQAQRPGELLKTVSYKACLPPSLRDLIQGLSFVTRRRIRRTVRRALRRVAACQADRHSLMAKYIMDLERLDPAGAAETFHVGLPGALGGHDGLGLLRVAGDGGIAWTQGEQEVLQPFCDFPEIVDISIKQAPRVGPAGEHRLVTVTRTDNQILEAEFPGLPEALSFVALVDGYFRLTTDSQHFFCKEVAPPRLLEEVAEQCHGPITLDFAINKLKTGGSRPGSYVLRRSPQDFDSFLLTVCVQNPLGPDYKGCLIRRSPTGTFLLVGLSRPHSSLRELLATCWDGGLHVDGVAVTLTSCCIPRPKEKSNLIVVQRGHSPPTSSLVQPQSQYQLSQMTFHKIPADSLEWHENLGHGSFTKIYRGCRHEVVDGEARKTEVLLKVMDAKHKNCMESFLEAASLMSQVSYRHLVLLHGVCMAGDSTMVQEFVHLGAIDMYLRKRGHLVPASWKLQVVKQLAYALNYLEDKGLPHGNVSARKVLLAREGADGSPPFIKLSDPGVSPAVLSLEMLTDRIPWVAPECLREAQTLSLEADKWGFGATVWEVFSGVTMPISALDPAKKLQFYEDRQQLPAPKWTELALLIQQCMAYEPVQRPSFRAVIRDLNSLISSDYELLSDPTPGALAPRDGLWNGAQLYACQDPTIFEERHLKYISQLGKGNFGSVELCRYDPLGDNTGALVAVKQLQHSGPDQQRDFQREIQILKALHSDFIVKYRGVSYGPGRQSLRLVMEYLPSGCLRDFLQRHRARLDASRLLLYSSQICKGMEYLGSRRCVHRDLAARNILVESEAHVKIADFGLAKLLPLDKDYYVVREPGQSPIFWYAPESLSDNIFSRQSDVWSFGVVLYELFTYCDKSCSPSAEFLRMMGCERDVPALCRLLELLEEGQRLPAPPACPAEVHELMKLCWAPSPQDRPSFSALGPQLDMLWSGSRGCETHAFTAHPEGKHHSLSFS
Briefly: JAK kinase activity, homogeneous time-resolved fluorescence (JAK3 reaction system). The conditions noted are these: ATP 2 μM, JAK3 protein 0.04 ng/μL; read-out: JAK 3 activity. On the procedure:
as §1, with “The reaction was performed in 384 shallow well plates with a total reaction volume of 10 μL.” left out, “After reacting for 1 hour, an antibody capable of recognizing substrate phosphorylation, dye XL-615 and detection buffer (Cisbio) containing EDTA were added to the system.” left out, “set. […]” for “set.”
In JAK3 reaction system, the concentration of ATP was 2 μM, and the concentration of JAK3 protein was 0.04 ng/μL.

Sequence of TYK2 (P29597 whole entry): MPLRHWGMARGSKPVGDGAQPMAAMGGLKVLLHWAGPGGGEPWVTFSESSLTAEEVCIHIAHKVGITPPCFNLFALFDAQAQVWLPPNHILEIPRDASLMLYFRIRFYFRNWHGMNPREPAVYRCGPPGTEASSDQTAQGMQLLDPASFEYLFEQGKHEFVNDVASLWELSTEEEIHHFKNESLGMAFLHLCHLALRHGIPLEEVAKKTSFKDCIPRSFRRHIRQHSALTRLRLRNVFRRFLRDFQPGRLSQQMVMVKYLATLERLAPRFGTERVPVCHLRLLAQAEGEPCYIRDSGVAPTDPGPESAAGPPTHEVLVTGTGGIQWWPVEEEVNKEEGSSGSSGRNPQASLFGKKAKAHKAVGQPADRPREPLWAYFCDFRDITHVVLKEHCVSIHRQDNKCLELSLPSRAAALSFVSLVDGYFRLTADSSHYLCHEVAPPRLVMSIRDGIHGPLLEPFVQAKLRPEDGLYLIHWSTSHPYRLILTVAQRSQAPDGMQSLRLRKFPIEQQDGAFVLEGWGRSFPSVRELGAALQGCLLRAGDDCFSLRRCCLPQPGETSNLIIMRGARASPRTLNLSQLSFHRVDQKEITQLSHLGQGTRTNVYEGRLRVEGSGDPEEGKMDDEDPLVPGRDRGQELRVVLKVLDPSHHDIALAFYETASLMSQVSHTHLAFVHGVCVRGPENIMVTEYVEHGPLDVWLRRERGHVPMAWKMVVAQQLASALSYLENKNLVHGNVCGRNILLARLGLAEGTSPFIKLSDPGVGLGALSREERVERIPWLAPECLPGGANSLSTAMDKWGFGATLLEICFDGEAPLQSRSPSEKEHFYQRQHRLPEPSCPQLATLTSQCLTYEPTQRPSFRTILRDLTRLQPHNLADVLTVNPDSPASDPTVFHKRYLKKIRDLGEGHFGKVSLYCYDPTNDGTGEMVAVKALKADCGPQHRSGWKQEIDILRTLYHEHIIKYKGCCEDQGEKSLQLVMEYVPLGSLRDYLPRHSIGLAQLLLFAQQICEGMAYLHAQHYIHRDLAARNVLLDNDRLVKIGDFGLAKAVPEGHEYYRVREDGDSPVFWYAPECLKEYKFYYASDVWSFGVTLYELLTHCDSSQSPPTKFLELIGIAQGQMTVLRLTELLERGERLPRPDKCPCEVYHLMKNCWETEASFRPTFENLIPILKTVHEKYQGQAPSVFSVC
Sequence of JAK1 (P23458 whole entry): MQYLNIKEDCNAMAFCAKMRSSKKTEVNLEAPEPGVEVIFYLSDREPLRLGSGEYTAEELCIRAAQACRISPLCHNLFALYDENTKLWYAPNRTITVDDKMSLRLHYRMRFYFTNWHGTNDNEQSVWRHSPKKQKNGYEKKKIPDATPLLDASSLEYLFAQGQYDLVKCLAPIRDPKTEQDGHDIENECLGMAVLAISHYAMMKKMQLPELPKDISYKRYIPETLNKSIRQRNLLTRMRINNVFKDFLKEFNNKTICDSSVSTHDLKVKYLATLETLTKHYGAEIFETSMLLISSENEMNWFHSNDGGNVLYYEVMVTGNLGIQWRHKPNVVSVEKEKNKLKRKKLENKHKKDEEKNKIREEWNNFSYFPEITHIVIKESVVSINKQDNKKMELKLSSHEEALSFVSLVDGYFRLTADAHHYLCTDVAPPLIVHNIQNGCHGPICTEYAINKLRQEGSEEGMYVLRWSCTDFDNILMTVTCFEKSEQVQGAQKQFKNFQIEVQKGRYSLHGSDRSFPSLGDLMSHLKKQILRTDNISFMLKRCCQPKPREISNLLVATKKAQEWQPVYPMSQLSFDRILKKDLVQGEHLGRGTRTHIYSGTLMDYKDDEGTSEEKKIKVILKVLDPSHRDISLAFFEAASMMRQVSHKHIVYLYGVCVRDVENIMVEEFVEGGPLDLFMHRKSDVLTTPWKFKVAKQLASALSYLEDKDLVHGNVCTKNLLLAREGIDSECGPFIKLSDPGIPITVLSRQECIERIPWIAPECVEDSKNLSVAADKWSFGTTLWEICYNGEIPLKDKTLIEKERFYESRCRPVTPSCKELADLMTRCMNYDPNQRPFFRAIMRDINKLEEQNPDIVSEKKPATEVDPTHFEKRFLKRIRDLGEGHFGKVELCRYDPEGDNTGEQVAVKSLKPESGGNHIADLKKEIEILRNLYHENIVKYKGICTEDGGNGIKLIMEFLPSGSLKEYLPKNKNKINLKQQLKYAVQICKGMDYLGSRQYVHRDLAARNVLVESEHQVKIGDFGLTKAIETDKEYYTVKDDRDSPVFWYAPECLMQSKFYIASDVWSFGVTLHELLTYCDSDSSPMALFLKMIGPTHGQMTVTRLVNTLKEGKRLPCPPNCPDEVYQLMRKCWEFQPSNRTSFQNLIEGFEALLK
Sequence of JAK2 (O60674 whole entry): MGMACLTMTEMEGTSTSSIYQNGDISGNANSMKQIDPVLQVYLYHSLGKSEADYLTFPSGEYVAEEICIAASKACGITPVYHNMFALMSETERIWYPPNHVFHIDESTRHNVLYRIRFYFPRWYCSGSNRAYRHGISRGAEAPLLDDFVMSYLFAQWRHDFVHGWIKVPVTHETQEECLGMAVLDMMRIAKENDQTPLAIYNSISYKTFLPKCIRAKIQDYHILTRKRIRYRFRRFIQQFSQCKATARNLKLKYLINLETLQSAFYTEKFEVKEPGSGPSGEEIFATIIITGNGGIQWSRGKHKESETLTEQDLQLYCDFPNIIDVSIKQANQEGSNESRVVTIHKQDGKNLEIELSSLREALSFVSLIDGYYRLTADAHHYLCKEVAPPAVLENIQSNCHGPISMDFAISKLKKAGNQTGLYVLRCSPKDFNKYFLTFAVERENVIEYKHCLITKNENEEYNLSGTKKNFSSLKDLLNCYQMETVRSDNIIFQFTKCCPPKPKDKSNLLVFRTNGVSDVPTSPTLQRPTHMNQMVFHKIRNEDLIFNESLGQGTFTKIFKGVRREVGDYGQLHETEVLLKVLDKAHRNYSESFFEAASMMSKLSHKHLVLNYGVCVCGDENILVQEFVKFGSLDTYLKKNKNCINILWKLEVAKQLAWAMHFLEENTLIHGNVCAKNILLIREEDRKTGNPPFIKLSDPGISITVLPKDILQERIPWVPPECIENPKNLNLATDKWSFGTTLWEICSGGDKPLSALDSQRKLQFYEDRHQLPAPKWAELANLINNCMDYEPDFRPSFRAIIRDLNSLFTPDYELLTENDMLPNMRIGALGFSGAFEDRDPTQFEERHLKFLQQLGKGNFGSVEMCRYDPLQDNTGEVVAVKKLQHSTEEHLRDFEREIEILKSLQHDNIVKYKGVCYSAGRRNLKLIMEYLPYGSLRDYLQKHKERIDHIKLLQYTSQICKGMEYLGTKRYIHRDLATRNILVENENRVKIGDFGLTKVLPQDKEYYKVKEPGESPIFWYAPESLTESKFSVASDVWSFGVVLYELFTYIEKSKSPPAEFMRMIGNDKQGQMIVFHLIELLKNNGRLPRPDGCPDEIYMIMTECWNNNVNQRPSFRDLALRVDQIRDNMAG

For `Nc1cc2ccc1-c1ccnc(n1)Nc1ccc(N3CCOCC3)c(c1)COCCCCNC2=O` [Example 31, 1^2-amino-4^4-morpholin-6-oxa-3,11-diaza-2(4,2)-pyrimidina-1(1,4),4(1,3)-dibenzenacyclododecaphan-12-one], the IC50 was 11 to 100 nM against JAK2, 101 to 1000 nM at JAK1, 101 to 1000 nM at TYK2 and less than 10 nM on JAK3.
For the molecule `O=C1NCCCCCc2cc(ccc2N2CCOCC2)Nc2nccc(n2)-c2ccc1cc2` [Example 32, 4^4-morpholin-3,11-diaza-2(4,2)-pyri-midina-1(1,4),4(1,3)-dibenzenacyclo-dodecaphan-11-one], the IC50 against JAK2 was less than 10 nM; on JAK1 it was 101 to 1000 nM; on TYK2, 101 to 1000 nM; at JAK3, 11 to 100 nM.
As for `COc1ccc2cc1COCCCCNC(=O)c1ccc(c(C)c1)-c1nc(ncc1C)N2` [Example 33, 1^2,2^5-dimethyl-4^4-methoxy-6-oxa-3,11-diaza-2(4,2)-pyrimidina-1(1,4),4(1,3)-dibenzenacyclododecaphan-12-one], the IC50 on JAK2 was 1000 to 10000 nM; at JAK1, 1000 to 10000 nM; on TYK2, greater than 10000 nM; on JAK3, 1000 to 10000 nM.
Consider `O=C1NCCCCOCc2cc(ccc2N2CCCC2)Nc2nccc(n2)-c2ccc1cc2F` [Example 34, 1^2-fluoro-4^4-(pyrrolidin-1-)-6-oxa-3,11-diaza-2(4,2)-pyrimidina-1(1,4),4(1,3)-dibenzenacyclododecaphan-12-one], for which the IC50 was 101 to 1000 nM at JAK2, 101 to 1000 nM on JAK1, 1000 to 10000 nM on TYK2 and 11 to 100 nM at JAK3.
In the case of `Cc1cc2ccc1-c1nc(ncc1C)Nc1ccc(Cl)c(c1)COCCCCNC2=O` [Example 35, 1^2,2^5-dimethyl-4^4-chloro-6-oxa-3,11-diaza-2(4,2)-pyrimidina-1(1,4),4(1,3)-dibenzenacyclododecaphan-12-one], the IC50 at JAK2 is greater than 10000 nM; on JAK1 it was greater than 10000 nM; at TYK2, greater than 10000 nM; on JAK3, 1000 to 10000 nM.
In the case of `Cc1cc2ccc1-c1nc(ncc1C)Nc1cccc(c1)COCCCCNC2=O` [Example 36, 1^2,2^5-dimethyl-6-oxa-3,11-diaza-2(4,2)-pyrimidina-1(1,4),4(1,3)-diben-zenacyclododecaphan-12-one], the IC50 is greater than 10000 nM against JAK2, greater than 10000 nM on JAK1, greater than 10000 nM on TYK2 and 1000 to 10000 nM at JAK3.
Take `Cc1ccc2cc1COCCCCNC(=O)c1ccc(c(C)c1)-c1nc(ncc1C)N2` [Example 37, 1^2,2^5,4^4-trimethyl-6-oxa-3,11-diaza-2(4,2)-pyrimidina-1(1,4),4(1,3)-di-benzenacyclododecaphan-12-one]: the IC50 on JAK2 is greater than 10000 nM; at JAK1, greater than 10000 nM; at TYK2, greater than 10000 nM; at JAK3, 1000 to 10000 nM.
Consider `Cc1ccc2cc1COCCCCNC(=O)c1ccc(c(F)c1)-c1ccnc(n1)N2` [Example 38, 1^2-fluoro-4^4-methyl-6-oxa-3,11-diaza-2(4,2)-pyrimidina-1(1,4),4(1,3)-di-benzenacyclododecaphan-12-one], for which the IC50 against JAK2 was 101 to 1000 nM; at JAK1, 101 to 1000 nM; at TYK2 it was 1000 to 10000 nM; at JAK3, 101 to 1000 nM.
Consider `Cc1ccc2cc1COCCCCNC(=O)c1ccc(c(C)c1)-c1ccnc(n1)N2` [Example 39, 1^2,4^4-dimethyl-6-oxa-3,11-diaza-2(4,2)-pyrimidina-1(1,4),4(1,3)-diben-zenacyclododecaphan-12-one], for which the IC50 on JAK2 was 1000 to 10000 nM; on JAK1, 1000 to 10000 nM; on TYK2 it was greater than 10000 nM; at JAK3, 101 to 1000 nM.
In the case of `Cc1cc2ccc1-c1ccnc(n1)Nc1cccc(c1)COCCCCNC2=O` [Example 40, 1^2-methyl-6-oxa-3,11-diaza-2(4,2)-pyrimidina-1(1,4),4(1,3)-diben-zenacyclododecaphan-12-one], the IC50 was 1000 to 10000 nM at JAK2, 1000 to 10000 nM at JAK1, greater than 10000 nM on TYK2 and 101 to 1000 nM at JAK3.
